Data from US20060069132A1, “Azolecarboxamide herbicides” (priority 2004, published 2006).

What was measured:
barnyardgrass [1] = experiment: Test B flooded paddy test; assay type: in vivo, Echinochloa crus-galli; conditions: 1000 g ai/ha, scale 0 to 100 (0 no effect, 100 complete control)
Outline: (§1)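 Read-out: visual comparison with controls, scored 0 to 100, where 100 means complete control and 0 no effect. Formulated chemicals were applied postemergence to plants 2–18 cm tall (1- to 4-leaf), or to flooded-paddy plants at the 2-leaf stage, then held 13 to 15 days under glass.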

morningglory = experiment: Test B pre-/postemergence herbicide test; assay type: in vivo, Ipomoea coccinea
Outline: (§2)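 Pre: seeds sown, then sprayed. Post: 1–4-leaf plants (2–18 cm) sprayed at the same time. Paddy: flooded, treated at 2-leaf stage. Formulation: non-phytotoxic solvent with surfactant. Greenhouse 13–15 days; visual 0–100 score relative to controls.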

wheat = experiment: Test B postemergence herbicide test; assay type: in vivo, Triticum aestivum; parameters: key to Wheat plant response rating: 0 = no effect, 100 = complete control
Outline: (§3)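 Scale 0–100: zero equals no visible effect, 100 complete control, judged by eye relative to controls. Timing: 13 to 15 days in greenhouse post-treatment. Growth stage at spraying: two leaves (paddy) or one to four leaves, 2–18 cm (postemergence).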

pigweed = experiment: Test B pre-/postemergence herbicide test; assay type: in vivo, Amaranthus retroflexus
Outline: (§4)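 Herbicidal effect was judged by eye on a 0–100 scale after plants stood 13 to 15 days in the greenhouse following pre- or postemergence treatment with surfactant-containing formulations.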

rice = experiment: Test B flooded paddy test; assay type: in vivo, Oryza sativa; conditions: 1000 g ai/ha, scale 0 to 100 (0 no effect, 100 complete control)
Outline: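 Treated at 2-leaf (paddy) or 1–4-leaf, 2–18 cm (postemergence); greenhouse 13–15 d; visual score vs control, 0 none to 100 complete control; dash = not tested.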

barnyardgrass [2] = experiment: Test B pre-/postemergence herbicide test; assay type: in vivo, Echinochloa crus-galli
Outline: as §2

giant foxtail = experiment: Test B pre-/postemergence herbicide test; assay type: in vivo, Setaria faberi
Outline: as §4

blackgrass = experiment: Test B postemergence herbicide test; assay type: in vivo, Alopecurus myosuroides
Outline: as §1

large crabgrass = experiment: Test B pre-/postemergence herbicide test; assay type: in vivo, Digitaria sanguinalis
Outline: as §4

[3] = tested on: small flower umbrella sedge; experiment: Test B flooded paddy test; assay type: in vivo, Cyperus difformis; conditions: 1000 g ai/ha, scale 0 to 100 (0 no effect, 100 complete control)
Outline: as §1

ducksalad = experiment: Test B flooded paddy test; assay type: in vivo, Heteranthera limosa; conditions: 1000 g ai/ha, scale 0 to 100 (0 no effect, 100 complete control)
Outline: as §1

Surinam grass = experiment: Test B pre-/postemergence herbicide test; assay type: in vivo, Urochloa decumbens
Outline: as §4

corn = experiment: Test B pre-/postemergence herbicide test; assay type: in vivo, Zea mays
Outline: as §4

velvetleaf = experiment: Test B pre-/postemergence herbicide test; assay type: in vivo, Abutilon theophrasti
Outline: as §4

wild oat = experiment: Test B postemergence herbicide test; assay type: in vivo, Avena fatua
Outline: as §3

[4] = 125 g ai/ha; 0 is no effect, 100 is complete control; preemergence
[5] = 125 g ai/ha; visual rating, scale 0 (no effect) to 100 (complete control); postemergence
[6] = 500 g ai/ha; visual rating, 0 = no effect, 100 = complete control; preemergence
[7] = postemergence, 500 g ai/ha; scale 0 to 100, 0 is no effect, 100 is complete control
[8] = 500 g ai/ha; visual rating 0-100, 0 no effect, 100 complete control; preemergence
[9] = Postemergence, 500 g ai/ha; visual rating after 13 to 15 days, scale 0 (no effect) to 100 (complete control)
[10] = postemergence, 125 g ai/ha; visual rating, scale 0 (no effect) to 100 (complete control)
[11] = preemergence, 125 g ai/ha; 0 to 100 scale, 0 is no effect, 100 is complete control

CCC1=NN(C(C)(C)C)CC1C(=O)Nc1cc(C(=O)N(C)CC)ccc1F (racemic) [Compound 342]
50: Foxtail, Giant plant response rating (giant foxtail; [7]) | Plant response rating (0 to 100 scale), Surinam Grass (Surinam grass; [4]) | Velvetleaf plant response rating (velvetleaf; [7])
100: Plant response rating, Pigweed (pigweed; [6]) | Plant response rating, Barnyardgrass (barnyardgrass [2]; [6]) | Plant response rating, Crabgrass, Large (large crabgrass; [6]) | Plant response rating, Surinam Grass (Surinam grass; [6])
10: Plant response rating (0 to 100 scale), Morningglory (morningglory; [4]) | Wheat plant response rating (wheat; [7]) | Barnyardgrass plant response rating (barnyardgrass [2]; [5]) | Crabgrass, Large plant response rating (large crabgrass; [5]) | Surinam Grass plant response rating (Surinam grass; [5]) | Corn plant response rating (corn; [5])
40: Pigweed plant response rating (pigweed; [5]) | Plant response rating (0 to 100 scale), Foxtail, Giant (giant foxtail; [4]) | Plant response rating (0 to 100 scale), Crabgrass, Large (large crabgrass; [4])
0: Wheat plant response rating (wheat; [5])
90: Barnyardgrass plant response rating (barnyardgrass [1]) | Plant response rating, Foxtail, Giant (giant foxtail; [6])
70: Plant response rating, Morningglory (morningglory; [6]) | Rice plant response rating (rice) | Plant response rating (0 to 100 scale), Barnyardgrass (barnyardgrass [2]; [4]) | Sedge, Umbrella plant response rating [3] | Plant response rating (0 to 100 scale), Velvetleaf (velvetleaf; [4])
80: Morningglory plant response rating (morningglory; [7]) | Plant response rating (0 to 100 scale), Pigweed (pigweed; [4]) | Pigweed plant response rating (pigweed; [7]) | Ducksalad plant response rating (ducksalad)
20: Barnyardgrass plant response rating (barnyardgrass [2]; [7]) | Foxtail, Giant plant response rating (giant foxtail; [5]) | Blackgrass plant response rating (blackgrass; [5]) | Crabgrass, Large plant response rating (large crabgrass; [7]) | Surinam Grass plant response rating (Surinam grass; [7]) | Velvetleaf plant response rating (velvetleaf; [5]) | Oat, Wild plant response rating (wild oat; [5])
30: Morningglory plant response rating (morningglory; [5]) | Blackgrass plant response rating (blackgrass; [7]) | Corn plant response rating (corn; [7]) | Oat, Wild plant response rating (wild oat; [7])

CC(=NO)c1cccc(NC(=O)c2cc(C(C)(C)C)nn2CC(F)(F)F)c1 [Compound 112]
40: Plant response rating, Corn (corn; [9]) | Corn plant response rating (corn; [10]) | Plant response rating, Oat, Wild (wild oat; [9]) | Oat, Wild plant response rating (wild oat; [10])
70: Rice plant response rating (rice; visual rating, 13 to 15 days) | Plant response rating, Barnyardgrass (barnyardgrass [2]; [8]) | Plant response rating, Barnyardgrass (barnyardgrass [2]; [9]) | Plant response rating, Velvetleaf (velvetleaf; [9])
80: Sedge, Umbrella plant response rating ([3]; visual rating, 13 to 15 days) | Ducksalad plant response rating (ducksalad; visual rating, 13 to 15 days)
90: Plant response rating, Pigweed (pigweed; [8]) | Pigweed plant response rating (pigweed; [10]) | Plant response rating, Crabgrass, Large (large crabgrass; [8])
0: Plant response rating, Morningglory (morningglory; [11]) | Plant response rating, Pigweed (pigweed; [11]) | Plant response rating, Corn (corn; [8]) | Plant response rating, Corn (corn; [11]) | Plant response rating, Velvetleaf (velvetleaf; [11])
50: Barnyardgrass plant response rating (barnyardgrass [1]; visual rating, 13 to 15 days) | Barnyardgrass plant response rating (barnyardgrass [2]; [10]) | Plant response rating, Barnyardgrass (barnyardgrass [2]; [11]) | Plant response rating, Velvetleaf (velvetleaf; [8])
30: Plant response rating, Morningglory (morningglory; [9]) | Plant response rating, Wheat (wheat; [9]) | Plant response rating, Foxtail, Giant (giant foxtail; [9]) | Plant response rating, Crabgrass, Large (large crabgrass; [9]) | Velvetleaf plant response rating (velvetleaf; [10])
10: Plant response rating, Foxtail, Giant (giant foxtail; [11])
100: Plant response rating, Pigweed (pigweed; [9])
60: Plant response rating, Morningglory (morningglory; [8])
20: Morningglory plant response rating (morningglory; [10]) | Wheat plant response rating (wheat; [10]) | Plant response rating, Foxtail, Giant (giant foxtail; [8]) | Foxtail, Giant plant response rating (giant foxtail; [10]) | Plant response rating, Blackgrass (blackgrass; [9]) | Blackgrass plant response rating (blackgrass; [10]) | Crabgrass, Large plant response rating (large crabgrass; [10]) | Plant response rating, Crabgrass, Large (large crabgrass; [11]) | Plant response rating, Surinam Grass (Surinam grass; [8]) | Plant response rating, Surinam Grass (Surinam grass; [9]) | Surinam Grass plant response rating (Surinam grass; [10]) | Plant response rating, Surinam Grass (Surinam grass; [11])
